This note sets out measurements from patent EP2857388A1, “Azoles containing sulfone” (Grünenthal GmbH, priority 2013, dated 2015).

The target of this assay is T1, human B1R (Homo sapiens, UniProt P46663).
T1 construct: expressed in transfected cells; host or cells: CHO K1 cells (Chinese Hamster Ovary), stably transfected
T1 sequence (P46663 1-353): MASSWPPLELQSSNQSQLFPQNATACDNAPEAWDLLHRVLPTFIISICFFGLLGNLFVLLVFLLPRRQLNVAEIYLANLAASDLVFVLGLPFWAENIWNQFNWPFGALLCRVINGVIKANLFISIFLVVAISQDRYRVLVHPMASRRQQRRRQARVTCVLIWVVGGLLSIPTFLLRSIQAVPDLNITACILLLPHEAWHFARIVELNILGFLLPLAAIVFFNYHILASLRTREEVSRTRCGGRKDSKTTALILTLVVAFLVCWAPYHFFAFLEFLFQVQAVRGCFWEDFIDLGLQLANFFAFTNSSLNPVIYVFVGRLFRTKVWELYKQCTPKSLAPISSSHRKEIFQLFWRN
The experiment in a line: Functional assay at bradykinin receptor 1 (B1R): Ca2+ fluorescence (Fluo-4) in FLIPR/Novostar, antagonist mode. It counts as cell-based. The following applies: test substance 10 µM, CHO K1 cells stably transfected with human B1R gene (hB1R-Zellen), agonist Lys-Des-Arg9-Bradykinin at EC80, % inhibition relative to maximal achievable inhibition; for inhibition at 10 µM: read-out: % Inhibierung (human B1R) bei 10 µM. The procedure: Die agonistische bzw. antagonistische Wirkung von Substanzen kann am Bradykinin Rezeptor 1 (B1R) der Spezies Mensch und Ratte mit ektopisch exprimierenden Zelllinien (CHO K1 Zellen) und mit Hilfe eines Ca^2+-sensitiven Farbstoffs (Fluo-4) im Fluorescent Imaging Plate Reader (FLIPR) quantifiziert werden. Die Angabe in % Aktivierung wird bezogen auf das Ca^2+-Signal nach Zugabe von Lys-Des-Arg^9-Bradykinin ([…]), bzw. Des-Arg^9-Bradykinin (100 nM). Antagonisten führen zu einer Unterdrückung des Ca^2+-Einstroms nach der Zugabe des Agonisten. Angegeben werden % Inhibition im Vergleich zu der maximal erreichbaren Inhibition.
Die agonistische bzw. antagonistische Wirkung von Substanzen kann am Bradykinin Rezeptor 1 (B1R) der Spezies Mensch und Ratte mit folgendem Assay bestimmt werden. Gemäß diesem Assay wird der intrazelluläre Ca^2+-Anstieg nach Gabe eines B1 R Agonisten mit Hilfe eines Ca^2+-sensitiven Farbstoffs (Typ Fluo-4, Molecular Probes Europe BV, Leiden NL) im Fluorescent Imaging Plate Reader (FLIPR, Molecular Devices, Sunnyvale, USA) und/oder im Novostar (BMG Labtech GmbH, Offenburg, DE) quantifiziert.
Es werden Chinese Hamster Ovary Zellen (CHO K1 Zellen) verwendet, die stabil mit dem humanen B1 R-Gen (hB1R-Zellen) bzw. dem B1 R-Gen der Ratte (rB1R-Zellen) transfiziert sind. Für funktionelle Untersuchungen werden diese Zellen auf schwarze 96-Loch-Platten mit klarem Boden (BD Biosciences, Heidelberg, DE oder Greiner, Frickenhausen, DE) in einer Dichte von 20.000 - 35.000 Zellen/Loch ausplattiert. Über Nacht werden die Zellen bei 37°C und 5 % CO2 in Kulturmedium (hB1 R-Zellen: Nutrient Mixture Ham's F12, Gibco Invitrogen GmbH, Karlsruhe, Deutschland oder DMEM, Sigma-Aldrich, Taufkirchen, Deutschland; rB1R-Zellen: D-MEM/F12, Gibco Invitrogen GmbH, Karlsruhe, DE) mit 10 Vol-% FBS (Fetal bovine serum, Gibco Invitrogen GmbH, Karlsruhe, DE oder PAN Biotech GmbH, Aidenbach, DE) belassen. Am folgenden Tag werden die Zellen mit 2,13 µM Fluo-4 (Molecular Probes Europe BV, Leiden, NL) in HBSS-Puffer (Hank's buffered saline solution, Gibco Invitrogen GmbH, Karlsruhe, DE) mit 2,5 mM Probenecid (Sigma-Aldrich, Taufkirchen, DE) und 10 mM HEPES (Sigma-Aldrich, Taufkirchen, DE) für 60 min bei 37°C beladen. Anschließend werden die Platten 2 x mit HBSS-Puffer gewaschen und mit HBSS-Puffer versetzt, der zusätzlich 0,1 % BSA (bovines Serumalbumin; Sigma-Aldrich, Taufkirchen, Deutschland), 5,6 mM Glucose und 0,05 % Gelatine (Merck KGaA, Darmstadt, DE) enthält. Nach einer weiteren Inkubation von 20 Minuten bei RT werden die Platten zur Ca^2+-Messung im FLIPR oder Novostar eingesetzt. Alternativ wird mit Puffer A (15 mM HEPES, 80 mM NaCl, 5 mM KCI, 1,2 mM CaCl2, 0,7 mM MgSO4, 2g/L Glucose, 2,5 mM Probenecid) gewaschen und mit Puffer A versetzt mit 2,5 µM Fluo-4 und 0,025 % Pluronic F127 (Sigma-Aldrich, Taufkirchen, DE) beladen. Danach werden die Zellen 2 x mit Puffer A gewaschen und für 30 Minuten mit Puffer A, der zusätzlich 0,05 % BSA und 0,05 % Gelatine enthält bei RT inkubiert und danach zur Ca^2+-Messung im FLIPR oder Novostar eingesetzt.
Die Ca^2+-abhängige Fluoreszenz wird dabei vor und nach Zugabe von Substanzen gemessen (λex = 488 nm, λem = 540 nm). Die Quantifizierung erfolgt durch die Messung der höchsten Fluoreszenzintensität (FC, Fluorescence Counts) über die Zeit.
Das FLIPR-Protokoll besteht aus 2 Substanzzugaben, die im FLIPR pipettiert werden. Bei Messungen im Novostar wird nur die zweite Substanzzugabe im Gerät pipettiert. Beide Geräte messen die Fluoreszenzintensität über die Zeit. Zunächst werden Testsubstanzen (10 µM) auf die Zellen pipettiert und der intrazelluläre Ca^2+-Anstieg mit der Kontrolle (hB1 R: Lys-Des-Arg^9-Bradykinin >= 50 nM; rB1 R: Des-Arg^9-Bradykinin >= 1 µM) verglichen. Daraus ergibt sich die Angabe in % Aktivierung bezogen auf das Ca^2+-Signal nach Zugabe von Lys-Des-Arg^9-Bradykinin (>= 50 nM), bzw. Des-Arg^9-Bradykinin (>=1 µM). Nach 6-20 Minuten Inkubation werden Lys-Des-Arg^9-Bradykinin (hB1 R) bzw. […]

For the compound “2-[3-[[(2,3-Dichlor-phenyl)sulfonyl]-methyl]-[1,2,4]oxadiazol-5-yl]-N-(1,3,3-trimethyl-piperidin-4-yl)-acetamid [CC-114]”, the “% Inhibierung (human B1R) bei 10 µM” value was found to be 61%. Same read-out and setting: the same measure for “2-[3-[[(2-Chlor-6-methyl-phenyl)sulfonyl]-methyl]-[1,2,4]oxadiazol-5-yl]-N-(3,3-dimethyl-piperidin-4-yl)-acetamid [CC-120]”: 98%; for “2-[3-[[(2-Chlor-6-methyl-phenyl)sulfonyl]-methyl]-[1,2,4]oxadiazol-5-yl]-N-(4-dimethylamino-cyclohexyl)-acetamid [CC-128]”: 99%.

For the compound “2-[3-[[(4-Chlor-2,5-dimethyl-phenyl)sulfonyl]-methyl]-[1,2,4]oxadiazol-5-yl]-N-cyclopropyl-N-(4-dimethylamino-cyclohexyl)-acetamid [CC-113]”, the “% Inhibierung (human B1R) bei 10 µM” value was determined as 90%. Consider `COc1cc(C)c(S(=O)(=O)Cc2noc(C(=O)N[C@H]3CCC[C@@H](N4CCN(C)CC4)C3)n2)c(C)c1` [CC-01, 3-[[(4-Methoxy-2,6-dimethyl-phenyl)sulfonyl]-methyl]-N-[(1S,3R)-3-(4-methyl-piperazin-1-yl)-cyclohexyl]-[1,2,4]oxadiazol-5-carbonsäure amid], for which the inhibition at 10 µM was 100%. The same measure, in the same setting: the same measure for `COc1cc(C)c(S(=O)(=O)Cc2noc(C(=O)NC3CCN(c4ccc(C(F)(F)F)cn4)CC3)n2)c(C)c1` [CC-02, 3-[[(4-Methoxy-2,6-dimethyl-phenyl)sulfonyl]-methyl]-N-[1-[5-(trifluormethyl)-pyridin-2-yl]-piperidin-4-yl]-[1,2,4]oxadiazol-5-carbonsäure amid]: 86%. Still for that read-out and setting: to `COc1cc(C)c(S(=O)(=O)Cc2noc(CC(=O)NC3CCN(c4ccc(C(F)(F)F)cn4)CC3)n2)c(C)c1` [CC-03, 2-[3-[[(4-Methoxy-2,6-dimethyl-phenyl)sulfonyl]-methyl]-[1,2,4]oxadiazol-5-yl]-N-[1-[5-(trifluor-methyl)-pyridin-2-yl]-piperidin-4-yl]-acetamid] belongs 91%; to `COc1cc(C)c(S(=O)(=O)Cc2noc(C(=O)NC3CCC(N(C)C)CC3)n2)c(C)c1` (stereo not shown) [CC-04, N-(4-Dimethylamino-cyclohexyl)-3-[[(4-methoxy-2,6-dimethyl-phenyl)sulfonyl]-methyl]-[1,2,4]oxa-diazol-5-carbonsäure amid], 100%; to `COc1cc(C)c(S(=O)(=O)Cc2noc(CC(=O)NC3CCC(N(C)C)CC3)n2)c(C)c1` (stereo not shown) [CC-05, N-(4-Dimethylamino-cyclohexyl)-2-[3-[[(4-methoxy-2,6-dimethyl-phenyl)sulfonyl]-methyl]-[1,2,4]oxadiazol-5-yl]-acetamid], 100%. Regarding `COc1cc(C)c(S(=O)(=O)Cc2noc(CC(=O)N(C)CCC3CCN(c4ccncc4)CC3)n2)c(C)c1` [CC-06, 2-[3-[[(4-Methoxy-2,6-dimethyl-phenyl)sulfonyl]-methyl]-[1,2,4]oxadiazol-5-yl]-N-methyl-N-[2-(1-pyridin-4-yl-piperidin-4-yl)-ethyl]-acetamid], the inhibition at 10 µM came out at 100%. On the same count and under the same terms, the same measure for `Cc1cccc(Cl)c1S(=O)(=O)Cc1noc(C(=O)NC2CCN(c3ccc(C(F)(F)F)cn3)CC2)n1` [CC-09, 3-[[(2-Chlor-6-methyl-phenyl)sulfonyl]-methyl]-N-[1-[5-(trifluormethyl)-pyridin-2-yl]-piperidin-4-yl]-[1,2,4]oxadiazol-5-carbonsäure amid]: 54%; for `COc1cc(C)c(S(=O)(=O)Cc2noc(C(=O)N(C)CCC3CCN(c4ccncc4)CC3)n2)c(C)c1` [CC-10, 3-[[(4-Methoxy-2,6-dimethyl-phenyl)sulfonyl]-methyl]-N-methyl-N-[2-(1-pyridin-4-yl-piperidin-4-yl)-ethyl]-[1,2,4]oxadiazol-5-carbonsäure amid]: 100%. As to `Cc1cccc(Cl)c1S(=O)(=O)Cc1noc(C(=O)NC2CCC(N(C)C)CC2)n1` (stereo not shown) [CC-11, 3-[[(2-Chlor-6-methyl-phenyl)sulfonyl]-methyl]-N-(4-dimethylamino-cyclohexyl)-[1,2,4]oxadiazol-5-carbonsäure amid], the inhibition at 10 µM was found to be 95%. Regarding `Cc1cc(S(=O)(=O)Cc2noc(C(=O)NC3CCC(N(C)C)CC3)n2)c(C)cc1Cl` (stereo not shown) [CC-13, 3-[[(4-Chlor-2,5-dimethyl-phenyl)sulfonyl]-methyl]-N-(4-dimethylamino-cyclohexyl)-[1,2,4]oxa-diazol-5-carbonsäure amid], the inhibition at 10 µM came out at 99%. Same read-out and setting: to `Cc1cccc(Cl)c1S(=O)(=O)Cc1noc(C(=O)N(C)CCC2CCN(c3ccncc3)CC2)n1` [CC-14, 3-[[(2-Chlor-6-methyl-phenyl)sulfonyl]-methyl]-N-methyl-N-[2-(1-pyridin-4-yl-piperidin-4-yl)-ethyl]-[1,2,4]oxadiazol-5-carbonsäure amid] belongs 100%. The same measure, in the same setting: the same measure for `Cc1cc(S(=O)(=O)Cc2noc(C(=O)N(C)CCC3CCN(c4ccncc4)CC3)n2)c(C)cc1Cl` [CC-16, 3-[[(4-Chlor-2,5-dimethyl-phenyl)sulfonyl]-methyl]-N-methyl-N-[2-(1-pyridin-4-yl-piperidin-4-yl)-ethyl]-[1,2,4]oxadiazol-5-carbonsäure amid]: 100%; for `COc1cc(C)c(S(=O)(=O)Cc2noc(C(=O)NC3CCNCC3(C)C)n2)c(C)c1` (stereo not shown) [CC-17, N-(3,3-Dimethyl-piperidin-4-yl)-3-[[(4-methoxy-2,6-dimethyl-phenyl)sulfonyl]-methyl]-[1,2,4]oxa-diazol-5-carbonsäure amid]: 100%. Same read-out and setting: the same measure for `COc1cc(C)c(S(=O)(=O)Cc2noc(CC(=O)NC3CCNCC3(C)C)n2)c(C)c1` (stereo not shown) [CC-18, N-(3,3-Dimethyl-piperidin-4-yl)-2-[3-[[(4-methoxy-2,6-dimethyl-phenyl)sulfonyl]-methyl]-[1,2,4]oxadiazol-5-yl]-acetamid]: 100%. With `Cc1cccc(Cl)c1S(=O)(=O)Cc1noc(C(=O)NC2CCC(N3CCCC3)CC2(C)C)n1` (stereo not shown) [CC-20, 3-[[(2-Chlor-6-methyl-phenyl)sulfonyl]-methyl]-N-(2,2-dimethyl-4-pyrrolidin-1-yl-cyclohexyl)-[1,2,4]oxadiazol-5-carbonsäure amid], the inhibition at 10 µM stood at 89%.
